According to patent publication US11661404B2, “Prodrug compounds activated by AKR1C3 and their use for treating hyperproliferative disorders” (priority 2018, dated 2023):
Like-named read-outs stand apart in the source and are kept apart here.

Columns and labels:
[1] = system: SNU398 hepatocellular carcinoma cells engineered to over-express AKR1C3; assay: Anti-proliferative IC50 assay, SNU398 over-expressing AKR1C3; assay type: cell-based, human; details: for IC50: Homo sapiens
Description: (§1) Four hundred cells were seeded in a volume of 100 μL in each well of a 96-well plate. The cells were left in a humidified incubator (37° C., 5% CO2) for 2 hours in order to enable attachment to the surface of the wells prior to compound addition. All compounds were prepared as stocks in DMSO and stored at −80° C. Frozen stocks of compounds were thawed immediately prior to addition to cells. Working solutions of each compound were made in α-MEM+5% FBS (v/v) at 3 times the required final concentration for the top well. The final concentration of DMSO in the α-MEM solution was ensured to not exceed 1% of the total volume. 50 μL of the working solution was added to the top wells (in duplicates) and gently mixed. The solubility of some compounds precluded the working solution in α-MEM to be 3 times the desired top well concentration. […] A 3-fold serial dilution was carried out along the plate starting from the top well. The first column of wells on the plate served as blanks (containing α-MEM+FBS) and the second column served as control wells (containing cells with no compound added). Following compound addition, the plates were incubated for 4 hours in a humidified incubator (37° C., 5% CO2).
(§2) Following the 4 hour compound exposure, the 96-well plates were washed three times by aspirating media with an Immuno Washer (Nunc) and each well replaced with 150 μL of α-MEM+5% (v/v) FBS+1% (v/v) P/S. The plates were left in a humidified incubator (37° C., 5% CO2) for 5 days to enable cell growth. The cells in 96-well plates were fixed 5 days after compound exposure by adding 50 μL of a 40% (w/v) trichloroacetic acid (TCA) solution so as to obtain a final TCA concentration of 10% in each well. The plates were left in the refrigerator (4° C.) for 1 hour and subsequently rinsed 3 times in tap water. Any excess water was left to drain and the cells were stained with 50 μL of 0.4% (w/v) sulforhodamine B (SRB). The plates with the SRB stain were left in the dark for 30 minutes. Excess stain was removed from the wells by rinsing the plates 4 times in water containing 1% (v/v) acetic acid. The stain was solubilised by adding 100 μL of 10 mM unbuffered Tris (pH 10.5) to each well and the plates were left in a shaker in a dark environment at room temperature for at least 1 hour. The absorbance values of the wells were determined by an ELx 808 Absorbance Microplate Reader (Bio-Tek Instruments, Winooski, Vt., USA), with the wavelength of the measurement filter set at 490 nm and a reference filter set at 450 nm. The absorbance of the reference filter was subtracted from the measurement filter to obtain a final absorbance of λ490-450 nm. The absorbance data was analysed and IC50 values determined by the KC4 microplate data analysis software (KC4™ V3.4, Bio-Tek).
(§3) Anti-proliferative IC50 assays were repeated as described above including the addition of 3 μM SN34037, a selective and potent small molecule inhibitor of AKR1C3.
(§4) Materials and methods used are as described for Example 9. […] This is a surprising finding and considerably greater than the approximately 77-fold, 270-fold and 400-fold increase in sensitivity observed for PR-104A, SN33540 and SN34454, respectively. In all cases, this increase in cytotoxicity resulting from expression of AKR1C3 can be substantially reversed by addition of an AKR1C3 inhibitor (SN34037), directly implicating metabolism of the prodrugs by AKR1C3 in the observed increase in cytotoxicity. As an important control, introduction of SN34037 had no anti-proliferative effects in wild-type SNU398 cells treated with compounds of the invention.

[2] = system: HCT116 colon cancer cells engineered to over-express AKR1C3; assay: Anti-proliferative IC50 assay (SRB), HCT116 over-expressing AKR1C3; assay type: cell-based, human; details: for IC50 Ratio WT:AKR1C3: HCT116-WT vs HCT116-AKR1C3
From the text: (§5) The cellular cytotoxicity of compounds of the invention resulting from AKR1C3-dependent metabolism of the compounds can readily be observed in anti-proliferative IC50 testing in isogenic cell lines that have been engineered to over-express human AKR1C3, relative to their wild-type counterparts that have been selected for their comparatively low levels of endogenous AKR1C3 expression (by Western blot analysis). The direct role of AKR1C3 in metabolism and cytotoxicity of the compounds is further supported for selected examples by repeat anti-proliferative experiments in the presence of a potent and selective small molecule inhibitor of AKR1C3, SN34037 (Flanagan et al., Bioorganic & Medicinal Chemistry (2014), 22(3), 967-977).
as §1, §2, §3

[3] = system: wild-type H460 lung cancer cells; assay: Anti-proliferative IC50 assay, wild-type H460; assay type: cell-based, human; details: for IC50: Homo sapiens
Description: as §1, §2, §3
(§6) Materials and methods used are as described for Example 9.

[4] = system: wild-type PLC/PRF/5 hepatocellular carcinoma cells; assay: Anti-proliferative IC50 assay, wild-type PLC/PRF/5; assay type: cell-based, human; details: Homo sapiens, PLC-PRF-5
Description: as §1, §2, §3, §6

[5] = system: wild-type SNU398 hepatocellular carcinoma cells; assay: Anti-proliferative IC50 assay, wild-type SNU398; assay type: cell-based; details: Homo sapiens
Description: as §1, §2, §3, §4

[6] = system: wild-type HCT116 colon cancer cells; assay: Anti-proliferative IC50 assay (SRB), wild-type HCT116; assay type: cell-based, human
From the text: as §5, §1, §2, §3

[7] = system: mixed MCLs that only express 1% of the activating reductase E. coli NfsB; details: 1% NfsB-expressing cells; Singleton et al., 2007; cited from earlier work
[8] = system: AKR1C3 mixed MCLs; details: Silva, MSc Thesis; cited from earlier work
[9] = system: wild-type HCT116 colon cancer cells; assay: Anti-proliferative IC50 under oxic and anoxic conditions; assay type: cell-based, human; details: for IC50: Homo sapiens, HCT-116
From the text: PR-104A was initially designed and optimised as a hypoxia-selective cytotoxin (Patterson et al, Clinical Cancer Research, 2007, 13, 3922-3932). In the context of an AKR1C3-activated prodrug, this route of activation is considered off-mechanism and may potentially be undesirable, leading to off-target toxicities in a subject. Preferred compounds of the invention have been determined to be substantially resistant to hypoxia-dependent activation and cytotoxicity in wild-type HCT116 colon cancer cells. HCT116 cells were treated with compounds of the invention under either oxic or anoxic conditions and then their degree of anti-proliferative activity determined.
Selected compounds were evaluated for cytotoxic potential (IC50) under anoxic conditions. The same procedures as described above for Examples 9-11 were carried out in a Bactron anoxic chamber (Sheldon Manufacturing Inc) with internal 37° C. incubators where palladium catalyst scrubbed gas (90% N2, 5% H2, 5% CO2) ensured severe anoxia (<0.001% O2) in the whole chamber. All materials required (including cells) were taken into the chamber through two cycles of vacuum and gassing with 100% N2, followed by a single cycle with 5% CO2 and 5% hydrogen in nitrogen. All experimental materials were placed in the anoxic chamber at least 3 days prior to the day required for the experiment in order to remove any traces of residual O2. The medium used for the 96-well plates in the anoxic chamber consisted of α-MEM+10% (v/v) FBS+1% (v/v) additives (1 M β-D-Glucose and 20 mM 2′-Deoxycytidine).

[10] = SNU-398, read-out: SNU398-AKR1C3 +AKR1C3 Inhibitor Anti-proliferative IC50
[11] = SNU-398, read-out: SNU398-AKR1C3 Anti-proliferative IC50
[12] = NCI-H460, read-out: H460-WT +AKR1C3 Inhibitor Anti-proliferative IC50
[13] = NCI-H460, read-out: H460-WT Anti-proliferative IC50
[14] = read-out: PLC/PRF/5-WT Anti-proliferative IC50
[15] = with 3 μM SN34037, read-out: PLC/PRF/5-WT +AKR1C3 Inhibitor Anti-proliferative IC50
[16] = SNU-398, read-out: SNU398-WT +AKR1C3 Inhibitor Anti-proliferative IC50
[17] = SNU-398, read-out: SNU398-WT Anti-proliferative IC50

Q: For `CS(=O)(=O)O.CS(=O)(=O)OCCN(CCOS(C)(=O)=O)c1ccc([N+](=O)[O-])cc1S(=O)(=O)N1CCNCC1`, which melting point is on record?
A: The melting point was 147 to 149 °C.

Q: What does the source list for `CN1CCN(S(=O)(=O)c2cc([N+](=O)[O-])ccc2N(CCBr)CCBr)CC1` [Compound 563, N,N-bis(2-bromoethyl)-2-((4-methylpiperazin-1-yl)sulfonyl)-4-nitroaniline]?
A: IC50 [1, 10]: 4.19 µM; IC50 [1, 11]: 0.015 µM; more cytotoxic than SN34118 to AKR1C3-expressing HCT116 cells [2]: 43 fold; IC50 Ratio WT:AKR1C3 [2]: 816; IC50 ([2]; Homo sapiens, HCT-116, read-out: HCT116-AKR1C3 IC50): 0.009 µM; IC50 ([2]; read-out: HCT116-AKR1C3 + AKR1C3 Inhibitor IC50, with 3 μM SN34037): 3.26 µM; more cytotoxic in H460 cells than SN34118 [3]: 82 fold; IC50 [3, 12]: 3.09 µM; IC50 [3, 13]: 0.019 µM; IC50 [4, 14]: 4.2 µM; IC50 [4, 15]: 21.5 µM; IC50 [5, 16]: 5.87 µM; IC50 [5, 17]: 6.93 µM; IC50 ([6]; Homo sapiens, HCT-116, read-out: HCT116-WT IC50): 7.34 µM; IC50 ([6]; read-out: HCT116-WT + AKR1C3 Inhibitor IC50, with 3 μM SN34037): 5.89 µM

Q: Which bystander effect [7] does the source give for `O=C(NCCO)c1cc([N+](=O)[O-])cc([N+](=O)[O-])c1N(CCBr)CCBr` [SN27686, reference compound] here?
A: Its bystander effect is 48%.

Q: And the “BEE reported in AKR1C3 mixed MCLs” value [8]?
A: Its value is 57.6%.

Q: And the IC50 ([2]; 4 hour exposure, 5 days growth, read-out: HCT116-AKR1C3 IC50)?
A: Its IC50 is 1.46 µM.

Q: What about the “IC50 Ratio WT:AKR1C3” value [2] of the same compound?
A: The value was 29.

Q: What about the IC50 ([6]; 4 hour exposure, 5 days growth, read-out: HCT116-WT IC50) of the same compound?
A: The IC50 was 42.6 µM.

Q: For `CN1CCN(C(=O)c2cc([N+](=O)[O-])cc([N+](=O)[O-])c2N(CCBr)CCOS(C)(=O)=O)CC1` [SN33540, reference compound], which IC50 [1, 10] is on record?
A: The IC50 was 193 µM.

Q: And the IC50 [1, 11]?
A: Its IC50 is 0.844 µM.

Q: And the “increase in sensitivity when SNU398 cells express AKR1C3” value ([1]; SNU398-WT vs SNU398-AKR1C3)?
A: The value was about 270 fold.

Q: And the IC50 ([9]; anoxic (<0.001% O2), read-out: HCT116-WT Anti-proliferative IC50 Anoxic)?
A: The IC50 was 5.1 µM.

Q: What about the IC50 ([9]; read-out: HCT116-WT Anti-proliferative IC50 Oxic) of the same compound?
A: Its IC50 is 127 µM.

Q: What about the “Hypoxic Cytotoxicity Ratio (HCR)” value ([9]; oxic vs anoxic IC50, HCT116-WT) of the same compound?
A: Its value is 25.

Q: And the “BEE reported in AKR1C3 mixed MCLs” value [8]?
A: The value was 60%.

Q: What about the IC50 [3, 12] of the same compound?
A: The IC50 was 97.7 µM.

Q: What about the IC50 [3, 13] of the same compound?
A: Its IC50 is 0.536 µM.

Q: And the IC50 [4, 14]?
A: The IC50 was 83.9 µM.

Q: And the IC50 [4, 15]?
A: The IC50 was 248 µM.

Q: And the IC50 [5, 16]?
A: Its IC50 is 248 µM.

Q: What about the IC50 [5, 17] of the same compound?
A: Its IC50 is 231 µM.
